This is an account of results in patent US7612201B2, “Pyrazole compounds” (Vernalis (Cambridge) Limited, priority 2002, dated 2009).

Where only a bound is given, the exact number is not on record here.

T1 sequence (P08238 whole entry): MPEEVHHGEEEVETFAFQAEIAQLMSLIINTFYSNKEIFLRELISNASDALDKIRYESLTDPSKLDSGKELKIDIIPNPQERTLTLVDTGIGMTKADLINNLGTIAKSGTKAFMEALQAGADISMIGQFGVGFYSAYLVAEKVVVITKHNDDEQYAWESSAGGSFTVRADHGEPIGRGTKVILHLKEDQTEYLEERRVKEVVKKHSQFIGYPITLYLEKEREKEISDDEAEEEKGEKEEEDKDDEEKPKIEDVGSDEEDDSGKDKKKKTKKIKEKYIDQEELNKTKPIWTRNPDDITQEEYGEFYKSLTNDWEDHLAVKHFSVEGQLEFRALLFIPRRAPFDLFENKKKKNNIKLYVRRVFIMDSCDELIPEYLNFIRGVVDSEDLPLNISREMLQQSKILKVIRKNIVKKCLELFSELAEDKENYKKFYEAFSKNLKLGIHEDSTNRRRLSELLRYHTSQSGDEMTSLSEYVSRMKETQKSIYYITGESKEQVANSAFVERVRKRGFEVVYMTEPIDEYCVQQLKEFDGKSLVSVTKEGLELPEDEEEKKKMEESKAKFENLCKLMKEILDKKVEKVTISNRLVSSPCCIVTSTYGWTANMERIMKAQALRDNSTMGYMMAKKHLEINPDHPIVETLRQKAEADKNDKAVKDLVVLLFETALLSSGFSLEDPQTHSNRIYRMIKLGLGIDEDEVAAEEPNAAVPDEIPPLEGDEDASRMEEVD

The first test addresses T1, human full-length HSP90 (Homo sapiens, UniProt P08238).
T1 construct: E. coli expressed human full-length HSP90 protein; made in house; host or cells: E. coli
In words: Fluorescence polarization (FP) binding assay. Conditions: FP assay (asterisk in table), activity range. The text has this: Fluorescence Polarization Assay
Fluorescence polarization {also known as fluorescence anisotropy} measures the rotation of a fluorescing species in solution, where the larger molecule the more polarized the fluorescence emission. When the fluorophore is excited with polarized light, the emitted light is also polarized. The molecular size is proportional to the polarization of the fluorescence emission.
The fluoroscein-labelled probe—RBT0045864-FAM—
[drawing 121] binds to HSP90 {full-length human, full-length yeast or N-terminal domain HSP90} and the anisotropy {rotation of the probe:protein complex} is measured.
Test compound is added to the assay plate, left to equilibrate and the anisotropy measured again. Any change in anisotropy is due to competitive binding of compound to HSP90, thereby releasing probe.
Chemicals are of the highest purity commercially available and all aqueous solutions are made up in AR water. • 1) Costar 96-well black assay plate #3915 • 2) Assay buffer of (a)100 mM Tris pH7.4; (b) 20 mM KCl; (c) 6 mM MgCl2. Stored at room temperature. • 3) BSA (bovine serum albumen) 10 mg/ml (New England Biolabs # B9001S) • 4) 20 mM probe in 100% DMSO stock concentration. Stored in the dark at RT. Working concentration is 200 nM diluted in AR water and stored at 4° C. Final concentration in assay 80 nM. • 5) E. coli expressed human full-length HSP90 protein, purified >95% (see, e.g., Panaretou et al., 1998) and stored in 50 μL aliquots at −80° C.
Protocol • 1) Add 100 μl 1× buffer to wells 11 A and 12A (=FP BLNK) • 2) Prepare assay mix—all reagents are kept on ice with a lid on the bucket as the probe is light-sensitive.
• 3) Aliquot 100 μl assay mix to all other wells • 4) Seal plate and leave in dark at room temp for 20 minutes to equilibrate
Compound Dilution Plate—1×3 Dilution Series • 1) In a clear 96-well v-bottom plate—{# VWR 007/008/257} add 10 μl 100% DMSO to wells B1 to H11 • 2) To wells A1 to A11 add 17.5 μl 100% DMSO • 3) Add 2.5 μl cpd to A1. This gives 2.5 mM {50×} stock cpd—assuming cpds 20 mM. • 4) Repeat for wells A2 to A10. Control in columns 11 and 12. • 5) Transfer 5 μl from row A to row B—not column 12. Mix well. • 6) Transfer 5 μl from row B to row C. […] In column 11 {provides standard curve} only add compound B11-H11. Add 2 μl of 100 mM standard cpd to wells B12-H12 {is positive control } • 13)The Z′ factor is calculated from zero controls and positive wells. It typically gives a value of 0.7-0.9.
The compounds tested in the above assay were assigned to one of two activity ranges, namely A=<10 μM; B=>10 μM, and those assignments are reported above.
On the technique in general: In fluorescence polarisation assays a small probe gives low polarisation when free and higher when bound to something large.
The term IC50 denotes the concentration that gives 50% inhibition. High values mean weaker potency, low ones greater potency. Compound `COc1ccc(CC(=O)N2CCN(c3c[nH]nc3-c3cc(Cl)c(O)cc3O)CC2)cc1` [Example 42] gave an IC50 of more than 10 µM. On the same count and under the same terms, the same measure for `CNC(=O)c1cccc(CN2CCN(c3c[nH]nc3-c3cc(Cl)c(O)cc3O)CC2)c1` [Example 44]: less than 10 µM; for `CCOC(=O)CN1CCN(c2c[nH]nc2-c2cc(Cl)c(O)cc2O)CC1` [Example 45]: less than 10 µM; for `O=C(O)CN1CCN(c2c[nH]nc2-c2cc(Cl)c(O)cc2O)CC1` [Example 46]: less than 10 µM.

`CC(=O)c1ccc(CN2CCN(c3c[nH]nc3-c3cc(Cl)c(O)cc3O)CC2)cc1` [Example 47]: the IC50 is less than 10 µM. On the same count and under the same terms, to `O=S(=O)(c1ccsc1)N1CCN(c2c[nH]nc2-c2cc(Cl)c(O)cc2O)CC1` [Example 48] belongs less than 10 µM; to `Cc1[nH]nc(-c2cc(Cl)c(O)cc2O)c1N1CCNCC1` [Example 49, 4-Chloro-6-(5-methyl-4-piperazin-1-yl-1H-pyrazol-3-yl)-benzene-1,3-diol], less than 10 µM; to `OCc1[nH]nc(-c2cc(Cl)c(O)cc2O)c1N1CCNCC1` [Example 50, 4-Chloro-6-(5-hydroxymethyl-4-piperazin-1-yl-1H-pyrazol-3-yl)-benzene-1,3-diol], less than 10 µM.

`CC(=O)Nc1ccc(-c2n[nH]cc2N2CCNCC2)c(O)c1` [Example 53, 3-[4-Acetamido-2-hydroxyphenyl]-4-(piperazin-1-yl)-1H-pyrazole] came in with an IC50 of more than 10 µM. Compound `Cc1c[nH]c2cc(O)c(-c3n[nH]cc3N3CCNCC3)cc12` [Example 54, 3-Methyl-5-(4-piperazin-1-yl-1H-pyrazol-3-yl)-1H-indol-6-ol] yielded an IC50 of more than 10 µM.

The target in a further test is T2, yeast HSP90 (Saccharomyces cerevisiae, UniProt P02829).
T2 construct: made in house; host or cells: E. coli
T2 sequence (P02829 whole entry): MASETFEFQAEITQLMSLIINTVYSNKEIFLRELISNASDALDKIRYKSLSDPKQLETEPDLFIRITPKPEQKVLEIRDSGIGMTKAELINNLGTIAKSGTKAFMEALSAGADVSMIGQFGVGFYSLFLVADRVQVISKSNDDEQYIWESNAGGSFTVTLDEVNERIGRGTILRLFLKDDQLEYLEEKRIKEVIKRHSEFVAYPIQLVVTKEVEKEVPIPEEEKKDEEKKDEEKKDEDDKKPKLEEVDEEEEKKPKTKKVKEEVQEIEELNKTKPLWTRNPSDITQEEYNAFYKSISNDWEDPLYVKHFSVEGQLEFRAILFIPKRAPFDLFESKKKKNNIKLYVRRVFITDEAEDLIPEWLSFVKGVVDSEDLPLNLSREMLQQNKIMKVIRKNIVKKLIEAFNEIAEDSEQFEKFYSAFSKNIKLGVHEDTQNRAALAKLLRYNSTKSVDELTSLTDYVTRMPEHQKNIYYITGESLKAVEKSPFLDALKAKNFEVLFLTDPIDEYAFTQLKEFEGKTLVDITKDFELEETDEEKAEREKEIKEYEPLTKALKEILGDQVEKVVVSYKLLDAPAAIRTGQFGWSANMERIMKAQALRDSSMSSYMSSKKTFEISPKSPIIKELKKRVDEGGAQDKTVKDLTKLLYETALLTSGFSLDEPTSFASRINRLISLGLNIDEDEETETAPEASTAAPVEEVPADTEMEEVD
Description: Malachite green ATPase assay. In kind it is biochemical. Conditions: activity range. The source says:
The intrinsic ATPase activity of HSP90 may be measured using yeast HSP90 as a model system. The assay, based on the use of malachite green for the measurement of inorganic phosphate, was used to test the HSP90 inhibitory activity of the compounds of the Examples herein.
Malachite Green ATPase Assay
Chemicals are of the highest purity commercially available and all aqueous solutions are made up in AR water. Because of the need to minimise contamination with inorganic phosphate, precautions should be taken with solutions and apparatus used in the assays. Glassware and pH meters are rinsed with double distilled or deionised water before use and, wherever possible, plastic ware should be used. Gloves are worn for all procedures. • (1) Greiner 384-well (Greiner 781101) or Costar 384-well flat-bottomed polystyrene multiwell plates (VWR). • (2) Assay buffer of (a) 100 mM Tris-HCl, pH 7.4, (b) 150 mM KCl, (c) 6 mM MgCl2. Stored at room temperature. • (3) 0.0812% (w/v) malachite green (M 9636, Sigma Aldrich Ltd., Poole, UK). Stored at room temperature. • (4) 2.32% (w/v) polyvinyl alcohol USP (P 1097, Sigma Aldrich Ltd, Poole, UK) in boiling water (see Comment 1), allowed to cool, and stored at room temperature. • (5) 5.72% (w/v) ammonium molybdate in 6 M hydrochloric acid. Stored at room temperature. • (6) 34% (w/v) sodium citrate. Stored at room temperature. • (7) 100 mM ATP, disodium salt, special quality (47699, Sigma Aldrich). Stored at −20° C. • (8) E. coli expressed yeast HSP90 protein, purified >95% (see, e.g., Panaretou et al., 1998) and stored in 50 uL aliquots at −80° C.
Method • 1. Dilute test compounds to 500 μM in AR water (DMSO concentration will be 2.5%). Transfer 2.5 μl of these compounds directly from the daughter plate to the assay plate, giving a final assay concentration of 100 μM. To obtain 12 point IC50 values, perform serial dilutions 1:2 to produce a range of assay concentrations from 100 μM to 97.6 nM (2.5% DMSO), and transfer 2.5 μl of each concentration into the assay plate. Column 1 in the assay plate contains no compound, as a negative control. An additional row with no compound is also used as a background. • 2. Prepare ATP by diluting 100 mM stock to 925 μM with assay buffer, and aliquot 5 μl of diluted ATP to each well including controls (final assay concentration 370 μM). • 3. Add 5 μl of buffer to background row. • 4. Dilute enzyme preparation to 1.05 μM with assay buffer, and aliquot 5 μl into each compound well and to the negative control column. • 5. Collect the reagents to the bottom of the well, cover plate with plate seal and incubate overnight at 37 degC. • 6. First thing in the morning prepare the Malachite Green Reagent. Add 2 parts of Malachite Green Solution, 1 part of Polyvinyl Alcohol Solution, 1 part of Ammonium Molybdate Solution, and 2 parts of AR water. • 7. Invert to mix, and leave for approximately 1 hour until the colour turns from brown to golden yellow. • 8. Add 40 μl of Malachite Green Reagent to each well, allow 5 mins for colour to develop. • 9. Add 5 μl of Sodium Citrate Reagent to each well (see comment 2) • 10. Re-cover with plate seal and shake on plate shaker for at least 15 mins. • 11. Measure Absorbance at 620 nm using a suitable plate reader (e.g. Victor, Perkin Elmer Life Sciences, Milton Keynes, UK).
Comments • (1) The polyvinyl alcohol dissolves in boiling water with difficulty and stirring for 2-3 h is required. • (2) The time interval between addition of the malachite green reagent and the sodium citrate should be kept as short as possible in order to reduce the non-enzymatic hydrolysis of ATP. Once the sodium citrate is added, the colour is stable for up to 4 h at room temperature. • (3) Compounds can be added to the assay plates using a Biomek FX Robot (Beckman Coulter).
The compound `Oc1cc(O)c(-c2n[nH]cc2N2CCNCC2)cc1CCc1ccccc1F` [Example 68] showed an IC50 of less than 50 µM. Still for that read-out and setting: the same measure for `Oc1cc(O)c(-c2n[nH]cc2N2CCNCC2)cc1CCc1cccc(F)c1` [Example 69]: less than 50 µM; for `Oc1cc(O)c(-c2n[nH]cc2N2CCNCC2)cc1CCc1ccc(F)cc1` [Example 70]: less than 50 µM. Same read-out and setting: the same measure for `Cc1cccc(CCc2cc(-c3n[nH]cc3N3CCNCC3)c(O)cc2O)c1` [Example 71]: less than 50 µM; for `Cc1ccc(CCc2cc(-c3n[nH]cc3N3CCNCC3)c(O)cc2O)cc1` [Example 72]: less than 50 µM. The same measure, in the same setting: to `Cc1ccc(CCc2cc(-c3n[nH]cc3N3CCNCC3)c(O)cc2O)c(C)c1` [Example 73] belongs less than 50 µM; to `Cc1ccc(C)c(CCc2cc(-c3n[nH]cc3N3CCNCC3)c(O)cc2O)c1` [Example 74], less than 50 µM. `Cc1ccccc1CCc1cc(-c2n[nH]cc2N2CCNCC2)c(O)cc1O` [Example 75] registered an IC50 of less than 50 µM. On the same count and under the same terms, to `COc1ccc(CCc2cc(-c3n[nH]cc3N3CCNCC3)c(O)cc2O)cc1` [Example 76] belongs less than 50 µM; to `Oc1cc(O)c(-c2n[nH]cc2N2CCC(NCc3ccccc3)CC2)cc1Br` [Example 79], less than 50 µM. As to `Oc1cc(O)c(-c2n[nH]cc2N2CCC(NCc3ccc(F)cc3)CC2)cc1Br` [Example 80], the IC50 was less than 50 µM.

On to `COc1ccc(CNC2CCN(c3c[nH]nc3-c3cc(Br)c(O)cc3O)CC2)cc1` [Example 81], for which the IC50 is less than 50 µM. For the compound `Oc1cc(O)c(-c2n[nH]cc2N2CCC(NCc3ccc(Cl)cc3)CC2)cc1Br` [Example 82], the IC50 is less than 50 µM. For `Oc1cc(O)c(-c2n[nH]cc2N2CCC(NCc3ccc4c(c3)OCO4)CC2)cc1Br` [Example 83], the IC50 was less than 50 µM. On the same count and under the same terms, the same measure for `O=[N+]([O-])c1ccc(CNC2CCN(c3c[nH]nc3-c3cc(Br)c(O)cc3O)CC2)cc1` [Example 84]: less than 50 µM; for `Oc1cc(O)c(-c2n[nH]cc2N2CCC(NCc3ccc(Br)cc3)CC2)cc1Br` [Example 85]: less than 50 µM. With `NS(=O)(=O)c1ccc(CNC2CCN(c3c[nH]nc3-c3cc(Br)c(O)cc3O)CC2)cc1` [Example 86], the IC50 was less than 50 µM. On the same count and under the same terms, to `CCNC1CCN(c2c[nH]nc2-c2cc(Br)c(O)cc2O)CC1` [Example 97] belongs less than 50 µM.

With `OCCNC1CCN(c2c[nH]nc2-c2cc(Br)c(O)cc2O)CC1` [Example 98], the IC50 is less than 50 µM.
